In brackets after ≈: the same amount, converted by molar mass. Counter-ions that a name gives are not always drawn. Like-named read-outs stand apart in the source and are kept apart here.
What was measured:
S. pyogenes A9604 = experiment: In vitro MIC by tube dilution, S. pyogenes A9604; type: cell-based
P. mirabilis A-9900 = experiment: In vitro MIC by tube dilution, P. mirabilis A-9900; type: cell-based
E. coli A15119 = experiment: In vitro MIC by tube dilution, E. coli A15119; type: cell-based
P. aeruginosa A-9843A [1] = experiment: In vitro MIC by tube dilution, P. aeruginosa A-9843A; type: cell-based
P. rettgeri A22424 = experiment: In vitro MIC by tube dilution, P. rettgeri A22424; type: cell-based
P. aeruginosa A21213 = experiment: In vitro MIC by tube dilution, P. aeruginosa A21213; type: cell-based; conditions: P. aeruginosa A21213
P. vulgaris A21559 = experiment: In vitro MIC by tube dilution, P. vulgaris A21559; type: cell-based; conditions: P. vulgaris A21559
S. faecalis A20688 = experiment: In vitro MIC by tube dilution, S. faecalis A20688; type: cell-based; conditions: S. faecalis A20688
E. coli A20341-1 = experiment: In vitro MIC by tube dilution, E. coli A20341-1; type: cell-based
[2] = system: S. aureus A-9606 (Pen-res.); experiment: In vitro MIC by tube dilution, S. aureus A-9606 (Pen-res.); type: cell-based
P. aeruginosa A-9843a [3] = type: in vivo; conditions: P. aeruginosa A9843A, mice, i.m.
Description: The PD50 (dose in mg/kg required to give protection to 50% of the infected mice) is indicated.
Treatment Schedule: Except for E. coli A15119 and K. pneumoniae A9964,
mice were treated i.m. with drugs 0 and 2 hours postinfection.
5 mice per dose were used for each test
The PD50 (dose in mg/kg) required to give protection to 50% of the infected mice is indicated.

K. pneumoniae A20468 = experiment: In vitro MIC by tube dilution, K. pneumoniae A20468; type: cell-based
S. pneumoniae A-9585 = experiment: In vitro MIC by tube dilution, S. pneumoniae A-9585; type: cell-based
P. morganii A15153 = experiment: In vitro MIC by tube dilution, P. morganii (M. morganii) A15153; type: cell-based
[4] = Blood levels in mice after intramuscular administration; conditions: 20 mg/kg i.m., mice (compiled table)
Excerpt: Compounds were solubilized in 0.1 M phosphate buffer pH 7.
Values are from a single test; 4 mice used per compound.
Compounds were solubilized in 0.1 M phosphate buffer, pH 7.
Values based on a single test; 4 mice per compound.

K. pneumoniae A-9664 = experiment: In vitro MIC by tube dilution, K. pneumoniae A-9664; type: cell-based
E. cloacae A-9659 = experiment: In vitro MIC by tube dilution, E. cloacae A-9659; type: cell-based
S. marcescens A20019 = experiment: In vitro MIC by tube dilution, S. marcescens A20019; type: cell-based
E. cloacae A-9656 = experiment: In vitro MIC by tube dilution, E. cloacae A-9656; type: cell-based
S. aureus A-9537 = experiment: In vitro MIC by tube dilution, S. aureus A-9537; type: cell-based
H. influenzae A20178 = experiment: In vitro MIC by tube dilution, H. influenzae A20178; type: cell-based; conditions: Haemophilus influenzae
H. influenzae A21522 = experiment: In vitro MIC by tube dilution, H. influenzae A21522; type: cell-based; conditions: Haemophilus influenzae
[5] = system: S. aureus A15097 (Meth-res.); experiment: In vitro MIC by tube dilution, S. aureus A15097 (Meth-res.); type: cell-based; conditions: Staphylococcus aureus
[6] = Proteus mirabilis, A9900, P. mirabilis A-9900, read-out: MIC
[7] = Providencia rettgeri, A22424, P. rettgeri A22424, read-out: MIC
[8] = Klebsiella pneumoniae, A20468, K. pneumoniae A20468, read-out: MIC
[9] = Klebsiella pneumoniae, A9664, read-out: MIC
[10] = Serratia marcescens, read-out: MIC

Molecule: 3-[4-(N,N-dimethyl-1,2,3-triazolium)methylthio]-6α-[1-(R)-hydroxyethyl]-7-oxo-1-azabicyclo(3.2.0)hept-2-ene-2-carboxylate [Example 15 "B"]
- MIC (S. pyogenes A9604; S. pyogenes A-9604): 0.001 µg/mL
- MIC (P. mirabilis A-9900; P. mirabilis A-9900): 0.03 µg/mL
- MIC (E. coli A15119; E. coli A15119): 0.008 µg/mL
- MIC (P. aeruginosa A-9843A [1]; P. aeruginosa A-9843a): 2 µg/mL
- MIC (P. rettgeri A22424; P. rettgeri A22424): 0.13 µg/mL
- MIC (P. aeruginosa A21213): 0.13 µg/mL
- MIC (P. vulgaris A21559): 0.008 µg/mL
- MIC (S. faecalis A20688): 0.5 µg/mL
- MIC (E. coli A20341-1): 0.008 µg/mL
- MIC ([2]; S. aureus A-9606 (Pen-res)): 0.008 µg/mL
- PD50/treatment (P. aeruginosa A-9843a [3]): 0.89 mg/kg
- MIC (K. pneumoniae A20468; K. pneumoniae A20468): 0.016 µg/mL
- MIC (S. pneumoniae A-9585; S. pneumoniae A-9585): 0.0005 µg/mL
- MIC (P. morganii A15153; M. morganii A15153): 0.06 µg/mL
- AUC [4]: 7400 ng·h/mL
- Cmax [4]: 15900 ng/mL
- MIC (K. pneumoniae A-9664): 0.03 µg/mL
- MIC (E. cloacae A-9659; E. cloacae A-9659): 0.016 µg/mL
- MIC (S. marcescens A20019): 0.016 µg/mL
- MIC (E. cloacae A-9656; E. cloacae A-9656): 0.03 µg/mL
- MIC (S. aureus A-9537; S. aureus A-9537 +50% serum): 0.016 µg/mL
- MIC (S. aureus A-9537; S. aureus A-9537, no serum): 0.004 µg/mL

Molecule: C[C@@H](O)[C@H]1C(=O)N2C(C(=O)[O-])=C(SCc3cc[n+](C)cc3)C[C@H]12 [Example 1, 1-Methyl-4-[2-carboxy-6α-[1(R)-hydroxyethyl]-7-oxo-1-azabicyclo[3.2.0]hept-2-en-3-thiomethyl]pyridinium hydroxide inner salt]
- MIC (H. influenzae A20178): 32 µg/mL
- MIC (H. influenzae A21522): 8 µg/mL

Molecule: C[C@@H](O)[C@H]1C(=O)N2C(C(=O)[O-])=C(SCCc3cc[n+](C)cc3)C[C@H]12 [Example 2]
- MIC (P. mirabilis A-9900; [6]): 0.03 µg/mL (≈ 0.0861 µM)
- MIC (P. aeruginosa A-9843A [1]; Pseudomonas aeruginosa, A9843A, P. aeruginosa A-9843A, read-out: MIC): 8 µg/mL (≈ 23 µM)
- MIC (P. rettgeri A22424; [7]): 0.13 µg/mL (≈ 0.373 µM)
- MIC ([5]; S. aureus A15097 (Meth-res.), overnight 37° C.): 8 µg/mL (≈ 23 µM)
- MIC ([2]; Staphylococcus aureus, S. aureus A-9606 (Pen-res.), overnight 37° C., read-out: MIC): 0.008 µg/mL (≈ 0.023 µM)
- MIC (K. pneumoniae A20468; [8]): 0.13 µg/mL (≈ 0.373 µM)
- MIC (P. morganii A15153; Morganella morganii, A15153, P. morganii A15153, read-out: MIC): 0.06 µg/mL (≈ 0.172 µM)
- MIC (K. pneumoniae A-9664; [9]): 0.06 µg/mL (≈ 0.172 µM)
- MIC (E. cloacae A-9659; Enterobacter cloacae, A9659, E. cloacae A9659, read-out: MIC): 0.13 µg/mL (≈ 0.373 µM)
- MIC (S. marcescens A20019; [10]): 0.03 µg/mL (≈ 0.0861 µM)
- MIC (S. aureus A-9537; Staphylococcus aureus, A9537, S. aureus A-9537 + 50% serum, overnight 37° C., read-out: MIC): 0.016 µg/mL
- MIC (S. aureus A-9537; Staphylococcus aureus, A9537, S. aureus A-9537, no serum, overnight 37° C., read-out: MIC): 0.004 µg/mL (≈ 0.0115 µM)

Molecule: C[C@@H](O)[C@H]1C(=O)N2C(C(=O)[O-])=C(SCCc3cccc[n+]3C)C[C@H]12 [Example 5, 3-(N-Methylpyridine-2-yl-ethanethio]-6α-[1-(R)-hydroxyethyl]-7-oxo-1-azabicyclo(3.2.0)hept-2-ene-2-carboxylate]
- MIC (S. pyogenes A9604; Streptococcus pyogenes, A9604, S. pyogenes A-9604, read-out: MIC): 0.004 µg/mL (≈ 0.0115 µM)
- MIC (P. mirabilis A-9900; [6]): 0.03 µg/mL (≈ 0.0861 µM)
- MIC (E. coli A15119; Escherichia coli, A15119, E. coli A15119, read-out: MIC): 0.016 µg/mL (≈ 0.0459 µM)
- MIC (P. aeruginosa A-9843A [1]; Pseudomonas aeruginosa, A9843A, P. aeruginosa A-9843a, read-out: MIC): 4 µg/mL (≈ 11.5 µM)
- MIC (P. rettgeri A22424; [7]): 0.13 µg/mL (≈ 0.373 µM)
- MIC ([5]; S. aureus A15097 (Meth-res)): 8 µg/mL (≈ 23 µM)
- MIC (E. coli A20341-1; Escherichia coli, A203411, read-out: MIC): 0.016 µg/mL (≈ 0.0459 µM)
- MIC ([2]; Staphylococcus aureus, S. aureus A-9606 (Pen-res), read-out: MIC): 0.008 µg/mL (≈ 0.023 µM)
- MIC (K. pneumoniae A20468; [8]): 0.06 µg/mL (≈ 0.172 µM)
- MIC (S. pneumoniae A-9585; Streptococcus pneumoniae, A9585, S. pneumoniae A-9585, read-out: MIC): 0.004 µg/mL (≈ 0.0115 µM)
- MIC (P. morganii A15153; Morganella morganii, A15153, M. morganii A15153, read-out: MIC): 0.06 µg/mL (≈ 0.172 µM)
- MIC (K. pneumoniae A-9664; [9]): 0.03 µg/mL (≈ 0.0861 µM)
- MIC (E. cloacae A-9659; Enterobacter cloacae, A9659, E. cloacae A-9659, read-out: MIC): 0.06 µg/mL (≈ 0.172 µM)
- MIC (S. marcescens A20019; [10]): 0.06 µg/mL (≈ 0.172 µM)
- MIC (E. cloacae A-9656; Enterobacter cloacae, A9656, E. cloacae A-9656, read-out: MIC): 0.13 µg/mL (≈ 0.373 µM)
- MIC (S. aureus A-9537; Staphylococcus aureus, A9537, S. aureus A-9537 +50% serum, read-out: MIC): 0.016 µg/mL (≈ 0.0459 µM)
- MIC (S. aureus A-9537; Staphylococcus aureus, A9537, S. aureus A-9537, no serum, read-out: MIC): 0.004 µg/mL (≈ 0.0115 µM)

— patent publication US4746736A, “Carbapenem antibiotics” (priority 1986, dated 1988)
